Target: human p45MEK1 (GST-MEK) (Homo sapiens, UniProt Q02750)
Assay: Assay for inhibitors of the MAP kinase pathway (coupled GST-MEK / GST-MAPK / MBP 33P incorporation assay)
Assay type: biochemical
Conditions: GST-MEK activated by c-raf, 60min at room temperature with inhibitor, MBP substrate
Protocol: To evaluate inhibitors of the MAPK pathway a coupled assay was carried out which measures phosphorylation of serine/threonine residues present in the substrate in the presence or absence of inhibitor. Recombinant glutathione S-transferase fusion protein containing human p45MEK1 (GST-MEK) was activated by c-raf (Sf9 insect cell lysate from triple baculoviral infection with c-raf/ras/lck) and used for the assay. Active GST-MEK was first used to activate a recombinant glutathione S-transferase fusion protein containing p44MAP kinase (GST-MAPK) in the presence of ATP and Mg^2+ for 60min at room temperature in the presence or absence of potential inhibitors. The activated GST-MAPK was then incubated with myelin basic protein (MBP) as substrate for 10min at room temperature in the presence of ATP, Mg^2+ and ^33P-ATP. The reaction was stopped by addition of 20% v/v phosphoric acid. Incorporation of ^33P into the myelin basic protein was determined by capture of the substrate on a filter mat, washing and counting using scintillation methods. The extent of inhibition was determined by comparison with untreated controls.
The final assay solution contained 10mM Tris, pH 7.5, 0.05mM EGTA, 8.33µM [γ^33P]ATP, 8.33mM Mg(OAc)2, 0.5mM sodium orthovanadate, 0.05%w/v BSA, 6.5ng GST-MEK, 1µg GST-MAPK and 16.5µg MBP in a reaction volume of 60µl.

human p45MEK1 (GST-MEK), sequence (Q02750 whole entry): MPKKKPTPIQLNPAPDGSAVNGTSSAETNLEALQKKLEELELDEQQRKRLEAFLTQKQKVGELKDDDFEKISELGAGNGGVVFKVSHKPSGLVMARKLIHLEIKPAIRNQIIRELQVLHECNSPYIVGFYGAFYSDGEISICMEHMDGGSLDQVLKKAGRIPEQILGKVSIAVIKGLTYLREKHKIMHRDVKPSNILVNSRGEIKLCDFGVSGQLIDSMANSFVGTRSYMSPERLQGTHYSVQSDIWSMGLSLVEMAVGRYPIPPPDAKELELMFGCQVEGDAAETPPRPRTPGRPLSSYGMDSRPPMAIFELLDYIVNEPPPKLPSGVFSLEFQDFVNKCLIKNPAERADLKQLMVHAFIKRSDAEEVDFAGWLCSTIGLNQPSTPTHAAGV

`COc1cc2ncc(C#N)c(Nc3ccc(OCC4OCCO4)cc3)c2cc1OC` [Compound No 252] was tested, and the IC50 was 150 nM.

— patent EP1178967B1, “QUINOLINE DERIVATIVES AS INHIBITORS OF MEK ENZYMES” (AstraZeneca AB, priority 1999, dated 2000)
